Data from patent US5128359A, “Benzimidazole and azabenzimidazole derivatives which are thromboxane receptor antagonists, their methods of preparation” (Laboratoires UPSA, priority 1990, dated 1992).

Target: T1, TXA2 receptors of human platelets (Homo sapiens, UniProt P21731)
T1 construct: Human platelets incubate in the presence of a single concentration; endogenous in cells; host or cells: human platelets
T1 sequence (P21731 1-343): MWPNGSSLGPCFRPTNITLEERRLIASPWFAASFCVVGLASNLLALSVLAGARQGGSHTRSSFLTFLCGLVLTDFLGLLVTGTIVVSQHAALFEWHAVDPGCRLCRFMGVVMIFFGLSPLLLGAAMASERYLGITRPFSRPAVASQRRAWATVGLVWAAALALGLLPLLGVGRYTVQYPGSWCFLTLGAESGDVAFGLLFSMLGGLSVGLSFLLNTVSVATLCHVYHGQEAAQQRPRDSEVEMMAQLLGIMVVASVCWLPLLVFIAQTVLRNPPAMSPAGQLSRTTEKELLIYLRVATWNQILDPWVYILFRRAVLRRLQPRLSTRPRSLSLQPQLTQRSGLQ
Assay: displacement of radioligand [^125 I]PTA-OH specifically bound to the TXA2 receptors of human platelets
Assay type: binding
Conditions: for inhibition at 10 µM / inhibition at 0.1 µM: 0.5 h, 30 minutes at 37° C; for inhibition at 10 µM: 1E-5 M competing agent, read-out: % displacement, Concentration 1E-5 M; for inhibition at 0.1 µM: 1E-7 M competing agent, read-out: % displacement, Concentration 1E-7 M; for Ki: determined according to the formula of CHENG and PRUSOFF, read-out: Ki (inhibition constant)
Protocol: The affinity of the products of the Examples described for thromboxane A2 receptors is evaluated by the technique of displacing a radioligand specifically bound to the TXA2 receptors of human platelets. […] The reaction is completed by the addition of a buffer, followed by rapid filtration through […] filters. […] The results are expressed, for the doses tested, as the percentage displacement of the radioligand specifically bound to the TXA2 receptors of human platelets.

inhibition at 10 µM [%]	inhibition at 0.1 µM [%]	Ki [nM]	Structure (SMILES)
100	28	–	O=C(O)CCCCSc1nc2cc(F)ccc2n1Cc1ccc(Cl)cc1 [Example 59, 5-[1-(4-Chlorobenzyl)-5-fluorobenzimidazol-2-yl]mercaptopentanoic acid]
100	49	–	CC(C)(CC(=O)O)Cc1nc2ccccc2n1Cc1cccc(C(F)(F)F)c1 [Example 71, 4-[1-(3-Trifluoromethylbenzyl)benzimidazol-2-yl]-3,3-dimethylbutanoic acid]
100	97	12.5	CC(C)(CC(=O)O)Cc1nc2cc(Cl)cnc2n1Cc1ccc(Cl)cc1 [Example 92]
100	66	–	CC(C)(CC(=O)O)Cc1nc2ccccc2n1Cc1ccc(F)cc1 [Example 67]
98	80	–	O=C(O)CC1(Cc2nc3cc(F)ccc3n2Cc2ccc(Cl)cc2)CC1 [Example 150, [1-[1-(4-Chlorobenzyl)-5-fluorobenzimidazol-2-yl]methylcycloprop-1-yl]acetic acid]
100	14	–	CC(C)(CC(=O)O)Cc1nc2cc(Cl)c(Cl)cc2n1Cc1ccc(Cl)cc1 [Example 70, 4-[1-(4-Chlorobenzyl)-5,6-dichlorobenzimidazol-2-yl]-3,3-dimethylbutanoic acid]
100	10	–	CC(CC(=O)O)Cc1nc2ccccc2n1Cc1ccc(Cl)cc1 (stereo not shown) [Example 83, 4-[1-(4-Chlorobenzyl)benzimidazol-2-yl]-3-methylbutanoic acid]
100	52	–	Cc1ccc(Cn2c(CC(C)(C)CC(=O)O)nc3ccccc32)cc1 [Example 66, 4-[1-(4-Methylbenzyl)benzimidazol-2-yl]-3,3-dimethylbutanoic acid]
95	74	–	CC(C)(CC(=O)O)Cc1nc2cc(Cl)ccc2n1Cc1ccc(Br)cc1F [Example 135, 4-[1-(2-Fluoro-4-bromobenzyl)-5-chlorobenzimidazol-2-yl]3,3-dimethylbutanoic acid]
97	37	–	O=C(O)CCCSc1nc2ccccc2n1Cc1ccc(Cl)cc1 [Example 63, 4-[1-(4-Chlorobenzyl)benzimidazol-2-yl]mercaptobutanoic acid]
100	79	–	COc1ccc(Cn2c(CC(C)(C)CC(=O)O)nc3cc(F)ccc32)cc1 [Example 131, 4-[1-(4-Methoxybenzyl)-5 fluorobenzimidazol-2-yl]-3,3-dimethylbutanoic acid]
82	61	–	CC(C)(CC(=O)O)Cc1nc2cc(Cl)ccc2n1Cc1ccc(S(C)(=O)=O)cc1 [Example 119, 4-[1-(4-Methylsulfonylbenzyl)-5-chlorobenzimidazol-2-yl]-3,3-dimethylbutanoic acid]
100	37	–	O=C(O)[C@@H]1CCC[C@H]1c1nc2cc(F)ccc2n1Cc1ccc(Cl)cc1 (relative stereo) [Example 153, Trans 2-[1-(4-chlorobenzyl)-5-fluorobenzimidazol-2-yl]cyclopentane-1-carboxylic acid]
87	56	–	CC(C)(CCC(=O)O)Cc1nc2cc(F)ccc2n1Cc1ccc(Cl)cc1 [Example 158, 5-[1-(4-Chlorobenzyl)-5-fluorobenzimidazol-2-yl]-4,4-dimethylpentanoic acid]
100	83	60.1	CC(C)(CC(=O)O)Cc1nc2ccccc2n1Cc1ccc([N+](=O)[O-])cc1 [Example 81, 4-[1-(4-Nitrobenzyl)benzimidazol-2-yl]-3,3-dimethylbutanoic acid]
92	95	–	CC(C)(CC(=O)O)Cc1nc2cc(F)ccc2n1Cc1ccc(Br)cc1 [Example 109, 4-[1-(4-Bromobenzyl)-5-fluorobenzimidazol-2-yl]-3,3-dimethylbutanoic acid]
99	88	11.4	CC(C)(CC(=O)O)Cc1nc2ccccc2n1Cc1ccc(Br)cc1F [Example 76, 4-[1-(2-Fluoro-4-bromobenzyl)benzimidazol-2-yl]-3,3-dimethylbutanoic acid]

inhibition at 10 µM [%]	inhibition at 0.1 µM [%]	Ki [nM]	Structure (SMILES)
100	89	31	COc1ccc(Cn2c(CC(C)(C)CC(=O)O)nc3ccccc32)cc1 [Example 68, 4-[1-(4-Methoxybenzyl)benzimidazol-2-yl]-3,3-dimethybutanoic acid]
98	100	–	CC(C)(CC(=O)O)Cc1nc2cc(F)ccc2n1Cc1ccc(Br)cc1F [Example 105, 4-[1-(2-Fluoro-4-bromobenzyl)-5-fluorobenzimidazol-2-yl]-3,3-dimethylbutanoic acid]
100	57	–	CCC(C)(CC(=O)O)Cc1nc2ccccc2n1Cc1ccc(Cl)cc1 (stereo not shown) [Example 75, 4-[1-(4-Chlorobenzyl)benzimidazol-2-yl]-3-methyl-3-ethylbutanoic acid]
97	2	1180	O=C(O)[C@@H]1CC[C@H]1c1nc2cc(F)ccc2n1Cc1ccc(Cl)cc1 (relative stereo) [Example 90, Trans-2-[1 (4-chlorobenzyl)-5-fluorobenzimidazol-2-yl]cyclobutane-1 carboxylic acid]
89	87	5.8	CSc1ccc(Cn2c(CC(C)(C)CC(=O)O)nc3cc(Cl)ccc32)cc1 [Example 117, 4-[1-(4-Methylthiobenzyl)-5-chlorobenzimidazol-2-yl]-3,3-dimethylbutanoic acid]
100	44	–	COc1ccc2c(c1)nc(CC(C)(C)CC(=O)O)n2Cc1ccc(Cl)cc1 [Example 78, 4-[1-(4-Chlorobenzyl)-5-methoxybenzimidazol-2-yl]-3,3-dimethylbutanoic acid]
90	7	–	CC(C)(CC(N)=O)Cc1nc2ccccc2n1Cc1ccc(Cl)cc1 [Example 85, 4-[1-(4-Chlorobenzyl)benzimidazol-2-yl]-3,3-dimethylbutanamide]
99	74	23.2	CC(C)(CC(=O)O)Cc1nc2cc(Cl)ccc2n1Cc1ccc(Cl)cc1 [Example 79, 4-[1 (4-Chlorobenzyl)-5-chlorobenzimidazol-2-yl]-3,3-dimethylbutanoic acid]
97	34	–	O=C(O)CCCSc1nc2ccccc2n1Cc1ccc(Cl)cc1Cl [Example 64, 4-[1 (2,4-Dichlorobenzyl)benzimidazol-2-yl]mercaptobutanoic acid]
89	77	–	CC(C)(CC(=O)O)Cc1nc2cc(Cl)ccc2n1Cc1ccc2ccccc2c1 [Example 143, 4-[1-(Naphth-2-ylmethyl)-5-chlorobenzimidazol-2-yl]-3,3-dimethylbutanoic acid]
95	13	–	CC(C)(CC(=O)O)Cc1nc2ccccc2n1Cc1ccccc1 [Example 58, 4-(1 Benzylbenzimidazol-2-yl)-3,3-dimethylbutanoic acid]
96	86	15.8	CC(C)(CC(=O)O)Cc1nc2ccccc2n1Cc1ccc(Br)cc1 [Example 69, 4-[1-(4 Bromobenzyl)benzimidazol-2-yl]-3,3-dimethylbutanoic acid]
92	71	–	CC(C)(CC(=O)O)Cc1nc2cc(Cl)ccc2n1Cc1ccc(Cl)c(Cl)c1 [Example 101, 4-[1-(3,4-Dichlorobenzyl)-5-chlorobenzimidazol-2-yl]-3,3-dimethylbutanoic acid]
100	94	6.3	CC(C)(CC(=O)O)Cc1nc2cc(F)ccc2n1Cc1ccc(Cl)cc1 [Example 74, 4-[1-(4-Chlorobenzyl)-5-fluorobenzimidazol-2-yl]-3,3-dimethylbutanoic acid]
92	89	6.02	CC(C)(CC(=O)O)Cc1nc2cc(F)ccc2n1Cc1ccc(Cl)c(Cl)c1 [Example 80, 4-[1-(3,4-Dichlorobenzyl)-5-fluorobenzimidazol-2-yl]-3,3-dimethylbutanoic acid]
98	85	–	CC(C)(CC(=O)O)Cc1nc2ccccc2n1Cc1ccc2ccccc2c1 [Example 84, 4-[1-(Naphth-2-ylmethyl)benzimidazol-2-yl]-3,3-dimethylbutanoic acid]
100	71	42.3	O=C(O)CC1(Cc2nc3cc(F)ccc3n2Cc2ccc(Cl)cc2)CCCC1 [Example 72, [10[1-(4-Chlorobenzyl)-5-fluorobenzimidazol-2-yl]-methylcyclopent-1 yl]acetic acid]
